Data on 24 compounds can be found in patent publication US11571423B2, “Small molecule modulators of human sting” (Curadev Pharma Limited, priority 2017, dated 2023).

For one experiment, the target named is hSTING(R232) (Homo sapiens, UniProt Q86WV6, H232R). In words: Luciferase reporter assay in HEK293T-hSTING-Luciferase cells, R232 (wild type) human STING. It is filed as cell-based. Conditions: 20 hr stimulation, read-out: R232 human activity (EC50 range). The essentials:
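Clonal HEK293T cells stably expressing STING from a pUNO-1 plasmid plus an ISRE/ISG54-driven secreted luciferase reporter; 5×10^5 cells stimulated with compound for 20 hr. Supernatant luciferase read by luminescence, giving fold-induction over baseline and EC50.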

The target in experiment [1] is cynomolgus monkey STING protein (Macaca fascicularis, UniProt A0A2R3XZA6). Briefly: Luciferase reporter assay, cynomolgus monkey STING overexpressed in HEK293T cells. It is filed as cell-based. Conditions: cynomolgus monkey STING overexpressed in HEK293T cells; read-out: Cynomolgus monkey STING activity (EC50 range). As to the method:
5×10^5 clonally selected HEK293T-hSTING-Luciferase cells were seeded in 384-well plates in growth medium and stimulated with novel compounds. After 20 hr of stimulation supernatant were removed and secretary reporter gene activity were measured using the Quanti-Luc detection system (Invivogen) on a Spectramax i3X luminometer.
In the tables below, EC50 value ranges for exemplary compounds are given.
Selected compounds were further tested against cynomolgus monkey STING protein overexpressed in HEK293T cells.

The structures appear in SMILES notation.

Sequence of hSTING(R232) (Q86WV6 whole entry H232R): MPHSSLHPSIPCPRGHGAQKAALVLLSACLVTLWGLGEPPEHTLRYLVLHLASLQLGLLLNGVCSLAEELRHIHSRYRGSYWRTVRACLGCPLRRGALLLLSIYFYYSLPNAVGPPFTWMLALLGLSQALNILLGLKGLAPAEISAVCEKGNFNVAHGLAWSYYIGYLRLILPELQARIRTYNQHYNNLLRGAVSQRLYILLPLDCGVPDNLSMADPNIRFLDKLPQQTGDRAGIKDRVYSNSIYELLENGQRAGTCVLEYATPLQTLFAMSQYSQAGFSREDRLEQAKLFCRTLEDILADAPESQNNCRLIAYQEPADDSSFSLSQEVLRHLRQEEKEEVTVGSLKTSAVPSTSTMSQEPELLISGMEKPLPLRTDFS
Sequence of cynomolgus monkey STING protein (A0A2R3XZA6 entry or part of it): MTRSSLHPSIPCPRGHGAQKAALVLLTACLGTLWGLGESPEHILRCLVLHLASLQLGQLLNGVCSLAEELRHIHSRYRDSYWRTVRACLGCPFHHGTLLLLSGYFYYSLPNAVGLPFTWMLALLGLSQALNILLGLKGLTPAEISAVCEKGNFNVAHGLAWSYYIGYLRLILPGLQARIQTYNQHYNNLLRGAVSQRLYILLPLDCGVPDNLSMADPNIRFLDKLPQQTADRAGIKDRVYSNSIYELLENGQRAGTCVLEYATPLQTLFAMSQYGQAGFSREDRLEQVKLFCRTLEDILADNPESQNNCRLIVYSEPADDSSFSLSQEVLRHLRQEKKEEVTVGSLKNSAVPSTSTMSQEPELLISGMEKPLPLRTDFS

With `C[C@H]1c2ccc(C(=O)NCc3c(F)cc(F)cc3F)cc2N(Cc2c(F)ccc(OP(=O)(O)O)c2F)C(=O)N1C` [Example 102, (S)-3-((3,4-dimethyl-2-oxo-7-((2,4,6-trifluorobenzyl)carbamoyl)-3,4-dihydroquinazolin-1(2H)-yl)methyl)-2,4-difluorophenyl dihydrogen phosphate], the EC50 (at hSTING(R232); in experiment [1]) was below 1 µM each time.

As to `C[C@H]1c2ccc(C(=O)NCc3c(F)cc(F)cc3F)cc2N(Cc2c(F)ccc(OCCOP(=O)(O)O)c2F)C(=O)N1C` [Example 103, (S)-2-(3-((3,4-dimethyl-2-oxo-7-((2,4,6-trifluorobenzyl)carbamoyl)-3,4-dihydroquinazolin-1(2H)-yl)methyl)-2,4-difluorophenoxy)ethyl dihydrogen phosphate], the EC50 (on hSTING(R232); in experiment [1]) was below 1 µM in each case.

For `C[C@H]1c2ccc(C(=O)NCc3c(F)cc(F)cc3F)cc2N(Cc2c(F)cc(F)cc2OP(=O)(O)O)C(=O)N1C` [Example 105, (S)-2-((3,4-dimethyl-2-oxo-7-((2,4,6-trifluorobenzyl)carbamoyl)-3,4-dihydroquinazolin-1(2H)-yl)methyl)-3,5-difluorophenyl dihydrogen phosphate], the EC50 (at hSTING(R232); in experiment [1]) was below 1 µM each time.

As to `CC(=O)Nc1ccc(COC(=O)Oc2ccc(F)c(CN3C(=O)N(C)[C@@H](C)c4ccc(C(=O)NCc5c(F)cc(F)cc5F)cc43)c2Cl)cc1` [Example 139, (S)-4-Acetamidobenzyl-(2-chloro-3-((3,4-dimethyl-2-oxo-7-((2,4,6-trifluorobenzyl)carbamoyl)-3,4-dihydroquinazolin-1(2H)-yl)methyl)-4-fluorophenyl) carbonate], the EC50 (on hSTING(R232); in experiment [1]) was below 1 µM in each case.

Consider `C=CCOc1cc(F)c(CN2C(=O)N(C)[C@@H](C)c3ccc(C(=O)NCc4c(F)cc(F)cc4F)cc32)c(F)c1` [Example 144], for which the EC50 (at hSTING(R232); in experiment [1]) was below 1 µM each time.

For the compound `C[C@H]1c2ccc(C(=O)NCc3c(F)cc(F)cc3F)cc2N(Cc2c(F)cc(OCC(O)CO)cc2F)C(=O)N1C` (stereo partly drawn) [Example 145, (4S)-1-(4-(2,3-Dihydroxypropoxy)-2,6-difluorobenzyl)-3,4-dimethyl-2-oxo-N-(2,4,6-trifluorobenzyl)-1,2,3,4-tetrahydroquinazoline-7-carboxamide], the EC50 (on hSTING(R232); in experiment [1]) was below 1 µM throughout.

With `C[C@H]1c2ccc(C(=O)NCc3c(F)cc(F)cc3F)cc2N(Cc2c(F)cc(OC[C@H](O)CO)cc2F)C(=O)N1C` [Example 146, (S)-1-(4-((R)-2,3-Dihydroxypropoxy)-2,6-difluorobenzyl)-3,4-dimethyl-2-oxo-N-(2,4,6-trifluorobenzyl)-1,2,3,4-tetrahydroquinazoline-7-carboxamide], the EC50 (at hSTING(R232); in experiment [1]) was below 1 µM throughout.

As for `COc1cc(F)c(CNC(=O)c2ccc3c(c2)N(Cc2c(F)cc(OC)cc2F)C(=O)N(C)[C@H]3C)c(F)c1` [Example 149, (S)—N,1-bis(2,6-difluoro-4-methoxybenzyl)-3,4-dimethyl-2-oxo-1,2,3,4-tetrahydroquinazoline-7-carboxamide], the EC50 (on hSTING(R232); in experiment [1]) was below 1 µM in each case.

In the case of `Cc1cccc(CN2C(=O)N(C)C(C)c3ccc(C(=O)NCc4c(F)cc(F)cc4F)cc32)c1F` (stereo not drawn) [Example 164, 1-(2-fluoro-3-methylbenzyl)-3,4-dimethyl-2-oxo-N-(2,4,6-trifluorobenzyl)-1,2,3,4-tetrahydroquinazoline-7-carboxamide], the EC50 (on hSTING(R232); in experiment [1]) was below 1 µM throughout.

With `COc1cc(F)c(CN2C(=O)N(C)C(C)c3ccc(C(=O)NCc4c(F)cc(F)cc4F)cc32)c(F)c1` (stereo not drawn) [Example 165, 1-(2,6-difluoro-4-methoxybenzyl)-3,4-dimethyl-2-oxo-N-(2,4,6-trifluorobenzyl)-1,2,3,4-tetrahydroquinazoline-7-carboxamide], the EC50 (on hSTING(R232); in experiment [1]) was below 1 µM each time.

For `COc1ccc(F)c(CN2C(=O)N(C)C(C)c3ccc(C(=O)NCc4c(F)cc(F)cc4F)cc32)c1` (stereo not drawn) [Example 166, 1-(2-fluoro-5-methoxybenzyl)-3,4-dimethyl-2-oxo-N-(2,4,6-trifluorobenzyl)-1,2,3,4-tetrahydroquinazoline-7-carboxamide], the EC50 was below 1 µM at hSTING(R232) and 1 to 10 µM in experiment [1].

Take `Cc1cccc(CN2C(=O)N(C)[C@@H](C)c3ccc(C(=O)NCc4c(F)cc(F)cc4F)cc32)c1F` [Example 168, (S)-1-(2-fluoro-3-methylbenzyl)-3,4-dimethyl-2-oxo-N-(2,4,6-trifluorobenzyl)-1,2,3,4-tetrahydroquinazoline-7-carboxamide]: the EC50 (on hSTING(R232); in experiment [1]) was below 1 µM each time.

For the compound `Cc1ncc(Cl)c(CN2C(=O)N(C)C(C)c3ccc(C(=O)NCc4c(F)cc(F)cc4F)cc32)c1F` (stereo not drawn) [Example 176, 1-((5-chloro-3-fluoro-2-methylpyridin-4-yl)methyl)-3,4-dimethyl-2-oxo-N-(2,4,6-trifluorobenzyl)-1,2,3,4-tetrahydroquinazoline-7-carboxamide], the concentration giving a half-maximal response (EC50) (on hSTING(R232); in experiment [1]) was below 1 µM throughout.

Regarding `COc1ccc(F)c(F)c1CN1C(=O)N(C)C(C)c2ccc(C(=O)NCc3c(F)cc(F)cc3F)cc21` (stereo not drawn) [Example 178, 1-(2,3-difluoro-6-methoxybenzyl)-3,4-dimethyl-2-oxo-N-(2,4,6-trifluorobenzyl)-1,2,3,4-tetrahydroquinazoline-7-carboxamide], the EC50 (on hSTING(R232); in experiment [1]) was below 1 µM in each case.

Consider `COc1ccc(F)c(CN2C(=O)N(C)[C@@H](C)c3ccc(C(=O)NCc4c(F)cc(F)cc4F)cc32)c1` [Example 183, (S)-1-(2-fluoro-5-methoxybenzyl)-3,4-dimethyl-2-oxo-N-(2,4,6-trifluorobenzyl)-1,2,3,4-tetrahydroquinazoline-7-carboxamide], for which the EC50 (on hSTING(R232); in experiment [1]) was below 1 µM each time.

Consider `COc1ncc(Cl)c(CN2C(=O)N(C)[C@@H](C)c3ccc(C(=O)NCc4c(F)cc(F)cc4F)cc32)c1F` [Example 184, (S)-1-((5-chloro-3-fluoro-2-methoxypyridin-4-yl)methyl)-3,4-dimethyl-2-oxo-N-(2,4,6-trifluorobenzyl)-1,2,3,4-tetrahydroquinazoline-7-carboxamide], for which the EC50 (at hSTING(R232); in experiment [1]) was below 1 µM each time.

Turning to `C[C@H]1c2ccc(C(=O)NCc3c(F)cc(F)cc3F)cc2N(Cc2c(F)cc(OCCOC(=O)CN)cc2F)C(=O)N1C` [Example 187, (S)-2-(4-((3,4-dimethyl-2-oxo-7-((2,4,6-trifluorobenzyl)carbamoyl)-3,4-dihydroquinazolin-1(2H)-yl)methyl)-3,5-difluorophenoxy)ethyl 2-aminoacetate], the EC50 (on hSTING(R232); in experiment [1]) was below 1 µM throughout.

With `CC1c2ccc(C(=O)NCc3c(F)cc(F)cc3F)cc2N(Cc2ccccc2F)C(=O)N1C` (stereo not drawn) [Example 202, 1-(2-fluorobenzyl)-3,4-dimethyl-2-oxo-N-(2,4,6-trifluorobenzyl)-1,2,3,4-tetrahydroquinazoline-7-carboxamide], the EC50 (on hSTING(R232); in experiment [1]) was below 1 µM in each case.

For `CC1c2ccc(C(=O)NCc3c(F)cc(F)cc3F)cc2N(Cc2c(F)cccc2C(F)(F)F)C(=O)N1C` (stereo not drawn) [Example 209, 1-(2-fluoro-6-(trifluoromethyl)benzyl)-3,4-dimethyl-2-oxo-N-(2,4,6-trifluorobenzyl)-1,2,3,4-tetrahydroquinazoline-7-carboxamide], the EC50 (at hSTING(R232); in experiment [1]) was below 1 µM each time.

On to `CC1c2ccc(C(=O)NCc3c(F)cc(F)cc3F)cc2N(Cc2cc(O)ccc2F)C(=O)N1C` (stereo not drawn) [Example 231, 1-(2-fluoro-5-hydroxybenzyl)-3,4-dimethyl-2-oxo-N-(2,4,6-trifluorobenzyl)-1,2,3,4-tetrahydroquinazoline-7-carboxamide], for which the EC50 (at hSTING(R232); in experiment [1]) was below 1 µM throughout.

With `C[C@H]1c2ccc(C(=O)NCc3c(F)cc(F)cc3F)cc2N(Cc2c(OCCO)ccc(F)c2F)C(=O)N1C` [Example 254, (S)-1-(2,3-difluoro-6-(2-hydroxyethoxy)benzyl)-3,4-dimethyl-2-oxo-N-(2,4,6-trifluorobenzyl)-1,2,3,4-tetrahydroquinazoline-7-carboxamide], the EC50 is below 1 µM on hSTING(R232) and 1 to 10 µM in experiment [1].

Take `C[C@H]1c2ccc(C(=O)NCc3c(F)cc(F)cc3F)cc2N(Cc2c(F)ccc(O)c2F)C(=O)N1C` [Example 255, (S)-1-(2,6-difluoro-3-hydroxybenzyl)-3,4-dimethyl-2-oxo-N-(2,4,6-trifluorobenzyl)-1,2,3,4-tetrahydroquinazoline-7-carboxamide]: the EC50 (on hSTING(R232); in experiment [1]) was below 1 µM in each case.

As to `C[C@H]1c2ccc(C(=O)NCc3c(F)cc(F)cc3F)cc2N(Cc2c(F)ccc(OCCO)c2F)C(=O)N1C` [Example 256, (S)-1-(2,6-difluoro-3-(2-hydroxyethoxy)benzyl)-3,4-dimethyl-2-oxo-N-(2,4,6-trifluorobenzyl)-1,2,3,4-tetrahydroquinazoline-7-carboxamide], the EC50 on hSTING(R232) was below 1 µM; in experiment [1], 1 to 10 µM.

In the case of `COc1ccc(F)c(CN2C(=O)N(C)[C@@H](C)c3ccc(C(=O)NCc4c(F)cc(F)cc4F)cc32)c1F` [Example 258, (S)-1-(2,6-difluoro-3-methoxybenzyl)-3,4-dimethyl-2-oxo-N-(2,4,6-trifluorobenzyl)-1,2,3,4-tetrahydroquinazoline-7-carboxamide], the EC50 (at hSTING(R232); in experiment [1]) was below 1 µM each time.
